Earlier results as cited in patent US20070185063A1, “Seven-membered ring nucleosides” (Idenix Pharmaceuticals, Inc., priority 2005, published 2007).

Legend:
HCV = details: ribavirin alone
[1] = system: human granulocyte-macrophage colony-forming (CFU-GM) activity; details: in vitro, bone marrow cells from healthy volunteers; clinically relevant concentrations
[2] = system: erythroid burst-forming (BFU-E) activity; details: in vitro, bone marrow cells from healthy volunteers; clinically relevant concentrations
[3] = in vivo

NC(=O)c1ncn([C@@H]2O[C@H](CO)[C@@H](O)[C@H]2O)n1 [Ribavirin, 1-β-D-ribofuranosyl-1-1,2,4-triazole-3-carboxamide]
effect on serum levels of HCV-RNA (HCV): does not lower serum levels of HCV-RNA
patients in whom serum amino transferase levels are reduced to normal (HCV): 40%

Cc1cn([C@H]2C[C@H](N=[N+]=[N-])[C@@H](CO)O2)c(=O)[nH]c1=O [ZDV, zidovudine]
concentration that directly inhibits CFU-GM activity [1]: 1000 to 2000 nM
concentration that directly inhibits BFU-E activity [2]: 1000 to 2000 nM

O=c1[nH]c(=O)n([C@@H]2O[C@H](CO)[C@@H](O)[C@@H]2F)cc1I [fialuridine, 1,-2′-deoxy-2′-fluoro-1-β-D-arabinofuranosyl-5-iodo-uracil]
clinical adverse events due to direct mitochondrial toxicity [3]: caused hepatic failure, pancreatitis, neuropathy, myopathy and lactic acidosis
